The results in this text go back to ChEMBL document CHEMBL1275342 (J Med Chem, 2010).

The IC50 is the concentration that gives 50% inhibition. A high value points to lower potency.

In experiment [1] the target is T1, Serine/threonine-protein kinase Nek2 (Homo sapiens, UniProt P51955).
T1 sequence (P51955 whole entry): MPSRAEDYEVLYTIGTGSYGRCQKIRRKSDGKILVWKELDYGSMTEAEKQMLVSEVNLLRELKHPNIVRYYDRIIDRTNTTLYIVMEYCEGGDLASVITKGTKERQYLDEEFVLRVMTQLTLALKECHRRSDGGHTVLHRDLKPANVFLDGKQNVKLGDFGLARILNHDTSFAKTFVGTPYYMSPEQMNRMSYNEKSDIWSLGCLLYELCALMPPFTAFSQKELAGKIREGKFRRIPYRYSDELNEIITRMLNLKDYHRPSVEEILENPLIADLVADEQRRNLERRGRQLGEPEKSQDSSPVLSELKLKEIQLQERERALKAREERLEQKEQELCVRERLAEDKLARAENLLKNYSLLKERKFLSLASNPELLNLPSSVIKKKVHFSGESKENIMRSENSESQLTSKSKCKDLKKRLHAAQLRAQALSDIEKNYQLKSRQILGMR
Description: Inhibition of NEK2 by microfluidic assay

In experiment [2] the target is T1, Serine/threonine-protein kinase Nek2. This is another data set of the same source.
Description: Inhibition of NEK2 autophosphorylation after 2 hrs by DELFIA assay
In experiment [3] the target is T2, Serine/threonine-protein kinase Nek1 (Homo sapiens, UniProt Q96PY6).
T2 sequence (Q96PY6 whole entry): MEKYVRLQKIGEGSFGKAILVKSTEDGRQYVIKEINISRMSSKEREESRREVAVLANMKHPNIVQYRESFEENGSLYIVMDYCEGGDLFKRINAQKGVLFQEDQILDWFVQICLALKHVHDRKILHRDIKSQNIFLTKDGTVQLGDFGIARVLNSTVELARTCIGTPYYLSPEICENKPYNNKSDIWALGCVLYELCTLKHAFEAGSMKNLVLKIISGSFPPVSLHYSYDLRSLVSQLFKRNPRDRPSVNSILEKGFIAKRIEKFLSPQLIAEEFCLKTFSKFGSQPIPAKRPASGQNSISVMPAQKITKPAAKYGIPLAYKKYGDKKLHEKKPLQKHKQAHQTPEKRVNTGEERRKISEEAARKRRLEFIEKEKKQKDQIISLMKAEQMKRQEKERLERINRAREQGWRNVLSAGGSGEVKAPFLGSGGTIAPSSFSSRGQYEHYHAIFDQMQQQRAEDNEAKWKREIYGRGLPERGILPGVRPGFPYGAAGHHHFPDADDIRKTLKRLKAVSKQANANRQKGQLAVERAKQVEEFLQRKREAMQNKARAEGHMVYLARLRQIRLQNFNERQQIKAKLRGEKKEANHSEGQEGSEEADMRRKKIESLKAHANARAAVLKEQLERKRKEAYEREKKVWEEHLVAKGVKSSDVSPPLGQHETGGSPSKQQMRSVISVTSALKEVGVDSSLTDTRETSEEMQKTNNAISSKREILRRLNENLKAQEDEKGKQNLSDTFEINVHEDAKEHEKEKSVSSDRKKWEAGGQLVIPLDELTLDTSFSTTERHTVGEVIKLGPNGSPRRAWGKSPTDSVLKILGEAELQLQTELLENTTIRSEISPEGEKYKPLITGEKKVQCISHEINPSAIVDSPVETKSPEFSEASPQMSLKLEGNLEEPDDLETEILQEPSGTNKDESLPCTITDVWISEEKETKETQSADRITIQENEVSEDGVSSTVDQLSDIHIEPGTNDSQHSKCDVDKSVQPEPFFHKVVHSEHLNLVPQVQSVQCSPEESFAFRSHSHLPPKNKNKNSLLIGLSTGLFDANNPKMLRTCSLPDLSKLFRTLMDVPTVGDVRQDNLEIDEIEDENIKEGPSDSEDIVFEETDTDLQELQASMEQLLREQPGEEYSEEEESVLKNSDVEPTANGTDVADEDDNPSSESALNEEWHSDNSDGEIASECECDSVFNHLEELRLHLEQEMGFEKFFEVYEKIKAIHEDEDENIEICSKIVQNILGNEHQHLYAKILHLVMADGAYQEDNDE
Description: Inhibition of NEK1 after 1 hr at room temperature by caliper method.

Experiment [4] concerns the target Serine/threonine-protein kinase PLK1 (Homo sapiens, UniProt P53350). Description: Inhibition of PLK1 after 75 mins at room temperature by caliper method.
Experiment [5] concerns the target T3, Serine/threonine-protein kinase Chk1 (Homo sapiens, UniProt O14757).
T3 sequence (O14757 whole entry): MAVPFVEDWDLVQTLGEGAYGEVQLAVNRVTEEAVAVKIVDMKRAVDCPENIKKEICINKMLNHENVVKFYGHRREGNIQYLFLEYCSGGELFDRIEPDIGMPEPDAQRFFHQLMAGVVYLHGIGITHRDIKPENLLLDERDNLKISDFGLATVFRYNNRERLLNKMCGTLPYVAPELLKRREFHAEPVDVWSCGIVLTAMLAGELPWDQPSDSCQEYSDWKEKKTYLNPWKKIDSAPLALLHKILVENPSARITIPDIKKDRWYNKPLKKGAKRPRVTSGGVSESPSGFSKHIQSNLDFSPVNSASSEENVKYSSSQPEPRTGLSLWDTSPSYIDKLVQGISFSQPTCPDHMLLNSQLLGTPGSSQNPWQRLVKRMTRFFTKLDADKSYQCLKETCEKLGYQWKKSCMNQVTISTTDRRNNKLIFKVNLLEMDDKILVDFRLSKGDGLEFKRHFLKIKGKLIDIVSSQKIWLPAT
The experiment is described as follows: Inhibition of CHK1.

Experiment [6] addresses T1, Serine/threonine-protein kinase Nek2. This is another data set of the same source.
Description: Inhibition of NEK2 assessed as inhibition of substrate phosphorylation

The structures appear in SMILES notation.

Chain of Serine/threonine-protein kinase PLK1 (P53350 whole entry): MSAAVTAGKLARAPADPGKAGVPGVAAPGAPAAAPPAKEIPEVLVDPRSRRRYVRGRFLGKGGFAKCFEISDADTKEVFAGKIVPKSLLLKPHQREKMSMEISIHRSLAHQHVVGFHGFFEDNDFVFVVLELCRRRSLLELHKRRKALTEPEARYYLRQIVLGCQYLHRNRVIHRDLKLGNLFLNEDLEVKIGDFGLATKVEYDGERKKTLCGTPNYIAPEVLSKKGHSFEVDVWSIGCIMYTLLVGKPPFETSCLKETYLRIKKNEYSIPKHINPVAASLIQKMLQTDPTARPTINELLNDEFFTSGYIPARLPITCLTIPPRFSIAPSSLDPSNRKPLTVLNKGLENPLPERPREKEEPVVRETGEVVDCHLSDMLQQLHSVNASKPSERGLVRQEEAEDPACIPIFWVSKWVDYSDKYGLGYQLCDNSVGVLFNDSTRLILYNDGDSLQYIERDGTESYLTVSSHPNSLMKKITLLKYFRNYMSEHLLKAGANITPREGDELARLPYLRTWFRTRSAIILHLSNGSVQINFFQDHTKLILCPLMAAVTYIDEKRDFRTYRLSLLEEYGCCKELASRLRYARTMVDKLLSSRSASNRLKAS

Regarding `CCc1cc(-c2nc(-c3cc(OC)c(OC)c(OC)c3)cnc2N)ccc1C(=O)O`, the concentration for half-maximal inhibition (IC50) in experiment [1] is 26.2 µM. The same measure, in the same setting: next, `COc1cc(-c2cnc(N)c(N3CC[C@@H](C(=O)O)C[C@H]3C(C)C)n2)cc(OC)c1OC` (racemic): 5.9 µM.

As for `COc1cc(-c2cnc(N)c(-c3ccc(C(=O)O)cc3C)n2)cc(OC)c1OC`, the IC50 in experiment [1] was above 50 µM.

In experiment [1], `COc1ccc(-c2cnc(N)c(N3CCC(C(=O)O)CC3)n2)cc1OC` registered an IC50 of 1.9 µM. For `CCc1ccsc1-c1cnc(N)c(N2CCC(C(=O)O)CC2)n1`, the concentration for half-maximal inhibition (IC50) is 0.72 µM in experiment [2]; 2.1 µM in experiment [1]; 22.5 µM in experiment [3]; 8.5 µM in experiment [4]; above 100 µM in experiment [5]; 1.9 µM in experiment [6]. For the compound `Nc1ncc(-c2ccccc2)nc1N1CCC(C(=O)O)CC1`, the concentration for half-maximal inhibition (IC50) in experiment [1] is 7.8 µM. Same read-out and setting: next, `Nc1ncc(-c2sccc2C2CC2)nc1N1CCC(C(=O)O)CC1`: 1.6 µM; `CCC[C@H]1CN(c2nc(-c3cc(OC)c(OC)c(OC)c3)cnc2N)CC[C@H]1C(=O)O` (racemic): 11.2 µM; `COc1cc(-c2cnc(N)c(N3CC[C@@H](C(=O)O)[C@@H](C4CC4)C3)n2)cc(OC)c1OC` (racemic): 38.3 µM. The compound `CCC[C@@H]1C[C@H](C(=O)O)CCN1c1nc(-c2cc(OC)c(OC)c(OC)c2)cnc1N` (racemic) returned a 50% inhibitory concentration (IC50) in experiment [1] of 5.4 µM. This IC50 lies about 7.1-fold lower than the previous one. Still for that read-out and setting: next, `COc1cc(-c2cnc(N)c(N3CC[C@H](C(=O)O)[C@H](C)C3)n2)cc(OC)c1OC`: 10.8 µM; `CC[C@H]1CN(c2nc(-c3cc(OC)c(OC)c(OC)c3)cnc2N)CC[C@@H]1C(=O)O` (racemic): 11.3 µM; `Nc1ncc(-c2cccs2)nc1N1CCC(C(=O)O)CC1`: 4.3 µM. Same read-out and setting: for `COc1cc(-c2cnc(N)c(N3CCC(C(N)=O)CC3)n2)cc(OC)c1OC` the value was 5.7 µM; for `Nc1ncc(-c2ccsc2)nc1N1CCC(C(=O)O)CC1`, 7.2 µM. On the same count and under the same terms, next, `Nc1nccnc1N1CCC(C(=O)O)CC1`: 48.5 µM; `COc1cc(-c2cnc(N)c(N3CC[C@@H](C(=O)O)C[C@H]3C)n2)cc(OC)c1OC` (racemic): 1.2 µM. Consider `COc1cc(-c2cnc(N)c(N3CC[C@H](C(=O)O)[C@@H](C)C3)n2)cc(OC)c1OC` (racemic), for which, in experiment [1], the 50% inhibitory concentration (IC50) stood at 2.7 µM. Consider `COc1cc(OC)cc(-c2cnc(N)c(N3CCC(C(=O)O)CC3)n2)c1`, for which the IC50 in experiment [1] came to 1.9 µM. This IC50 and that of the compound before are within 1.5-fold of each other.

`Nc1ncc(-c2sccc2C2CCCC2)nc1N1CCC(C(=O)O)CC1` yielded an IC50 in experiment [1] of 3.4 µM. The same measure, in the same setting: next, `COc1cc(-c2cnc(N)c(N3CCCCC3)n2)cc(OC)c1OC`: above 50 µM; `COC(=O)C1CCN(c2nc(-c3cc(OC)c(OC)c(OC)c3)cnc2N)CC1`: 18.3 µM. Regarding `COc1cc(-c2cnc(N)c(N3CC[C@@H](C(=O)O)[C@@H](C)C3)n2)cc(OC)c1OC`, in experiment [1], the half-maximal inhibitory concentration (IC50) was found to be 0.39 µM. As for `COc1cc(-c2cnc(N)c(-c3ccc(C(=O)O)cc3)n2)cc(OC)c1OC`, the values for the IC50 in experiment [2] and in experiment [6] were 0.71 µM and 1.6 µM, respectively. Consider `COc1cc(-c2cnc(N)c(N3CCC(C(=O)O)CC3)n2)cc(OC)c1OC`, for which the concentration for half-maximal inhibition (IC50) in experiment [3] was 2.6 µM; in experiment [4], 22.6 µM; in experiment [5], above 100 µM. With `COc1cc(-c2cnc(N)c(N3CC[C@@H](C(=O)O)[C@@H](C)[C@H]3C)n2)cc(OC)c1OC`, the results for the half-maximal inhibitory concentration (IC50) in experiment [3], in experiment [4] and in experiment [5] were 0.17 µM, 19.4 µM and above 100 µM, respectively. `COc1ccc(-c2cnc(N)c(N3CCC(C(=O)O)CC3)n2)cc1` registered an IC50 in experiment [1] of 19.8 µM. The compound `CC[C@@H]1C[C@H](C(=O)O)CCN1c1nc(-c2cc(OC)c(OC)c(OC)c2)cnc1N` (racemic) registered a concentration for half-maximal inhibition (IC50) in experiment [1] of 1.4 µM. The same measure, in the same setting: next, `COc1cc(-c2cnc(N)c(N3CC[C@@H](C(=O)O)[C@@H](C)C3)n2)cc(OC)c1OC` (racemic): 0.72 µM.
